The values that follow come from patent US5245034A, “Compound having vessel smooth muscle relaxation activity” (Hidaka; Kiroyoshi, priority 1988, dated 1993).

Assay [1] has as its system superior mesenteric artery (contracted by potassium chloride). Description: Vessel Smooth Muscle Relaxation Action (V.R.). The format is cell-based, rabbit. The note with it: Oryctolagus cuniculus, read-out: V.R. (ED50). An excerpt:
The specimen was suspended by loading a strain in Krebs-Henseleit solution through which an oxygen gas containing 5% carbon dioxide was bubbled. The specimen was contracted by adding potassium chloride to maintain a predetermined strain. Thereafter, a test compound was cumulatively administrated.

The test system of a further assay is washed platelets. Description: Platelet Agglutination Inhibition (P.A.), collagen-induced. The format is cell-based, human (healthy person). The conditions noted are these: Homo sapiens, read-out: P.A. (IC50). How it is done:
To this suspension was added one sixth volume of ACD solution, and the whole was further centrifuged at 1500×G for 5 minutes to prepare a platelet pellet. The platelet pellet was then suspended in a modified HEPES Tyrode solution to obtain about 3×10^5 /μl in washed platelet suspension.
To 270 μl of the washed platelet suspension was added 3 μl of a solution of a test compound dissolved in an appropriate medium in different concentration, and the mixture was pre-incubated at 37° C. for 2 minutes.
As a control, the above-mentioned procedure was carried out except that the test medium without a test compound was used, and the absorbance before addition of collagen and the maximum absorbance after addition of collagen were measured, and the difference between both absorbances was taken as 100% agglutination.
For test compound, the absorbance before an addition of collagen and the maximum absorbance after an addition of collagen were measured, and a percent of the inhibition was determined, compared with the control.

The target of assay [2] is Calmodulin-Dependent Phosphodiesterase (Ca^2+ PDE). Description: Calmodulin-Dependent Phosphodiesterase Inhibition (Ca^2+ PDE). It counts as biochemical, rat. The note with it: [^3 H]-cGMP, 30° C. How it is done:
Phosphodiesterase (Ca^2+ PDE)Ca^2+ PDE was partially purified from the brain of rat by DEAE-Sepharose column chromatography.
Calmodulin was purified from the calf brain using a calmodulin inhibitor W-7 affinity column.
A reaction mixture contained 20 μl of 500 mM Tris-HCl (pH 8.0), 20 μl of 50 mM MgCl2, 20 μl of 2 mM CaCl2 (or 10 mM EGTA), 20 μl of 1 mg/ml bovine serum albumin, PDE, […] of calmodulin, test sample and distilled water to make total volume 200 μl. To the mixture was added 20 μl of 4 μM [^3 H]-cGMP (2.5 μCi/ml), the mixture was incubated at 30° C. for 15 minutes, and then heated in boiling water for 3 to 5 minutes to terminate the reaction, and cooled in ice-water bath. 20 μg of 5'-nucleotidase (Snake venum) was added to the mixture, and the mixture was again incubated at 30° C. for 10 minutes. After addition of about 2 ml of water, the sample was applied to a cation exchange resin column (Biorad AG.AG50W-X4 to adsorbe the [^3 H]-guanosine and additionally about 2 ml of washing water for the sample was added to the column. The column was washed with about 20 ml of water, and the adsorbed [^3 H]-guanosine was eluted with 3 ml of 3N NH4 OH, and the elute was directly received by a vial. After an addition of 10 ml of an emulsified scintillation solution (ACS-II, AMERSHAM) the radio activity was measured by a scintillation counter LS7500 (Beckmann). The enzyme activity in the presence of calmodulin was taken as […], and a concentration of a test compound in μM which provides a 50% inhibition was expressed as IC50.

Setting [3] is: concentration relaxing KCl-contracted strain to 50%, cumulative administration.
[4] abbreviates: washed platelets, collagen, 37° C.

Like-named read-outs stand apart in the source and are kept apart here.

As a reminder, the IC50 is the concentration at which inhibition is half-maximal. In the case of `O=C(OCc1ccccc1)N1CCN(C(=O)[C@H](Cc2ccc(O)cc2)NS(=O)(=O)c2cccc3cnccc23)CC1` [Example 29, 1-Benzyloxycarbonyl-4-[N-(5-Isoquinolinesulfonyl)Tyrosyl]Piperazine], in assay [1] (setting [3]), the EC50 stood at 7.6 µM. Also, in the assay with washed platelets (setting [4]), the IC50 was 73 µM.

For the compound `CN(C(Cc1ccc(OS(=O)(=O)c2cccc3cnccc23)cc1)CN1CCN(c2ncccn2)CC1)S(=O)(=O)c1cccc2cnccc12` (centres unmarked) [Example 41, N-{1-[p-(5-isoquinolinesulfonyloxy)benzyl]-2-[4-(2-pyrimidyl)piperazinyl]ethyl}-N-methyl-5-isoquinolinesulfonamide], in assay [1] (setting [3]), the EC50 was determined as 1.8 µM. The IC50 in the assay on washed platelets (setting [4]) amounted to 10 µM.

For `CN(C(Cc1ccc(O)cc1)CN1CCN(c2ccc(F)cc2)CC1)S(=O)(=O)c1cccc2cnccc12` (centres unmarked) [Example 50, N-{1-(p-hydroxybenzyl)-2-[4-(p-fluorophenyl)piperazinyl]ethyl}-N-methyl-5-isoquinolinesulfonamide], in assay [1] (setting [3]), the EC50 was 0.67 µM. Further, the IC50 in the assay with washed platelets (setting [4]) worked out at 70 µM.

Turning to `O=C(OCc1ccccc1)N1CCN(CC(Cc2ccc(O)cc2)NS(=O)(=O)c2cccc3cnccc23)CC1` (centres unmarked) [Example 68, N-[2-(4-benzyloxycarbonylpiperazinyl)-1-(p-hydroxybenzyl)ethyl]-5-isoquinolinesulfonamide], the EC50 in assay [1] (setting [3]) was 3.3 ± 1.4 µM. Further, the IC50 in the assay with washed platelets (setting [4]) is 6 µM.

In the case of `O=C(NCc1ccccc1)N1CCN(CC(Cc2ccc(O)cc2)NS(=O)(=O)c2cccc3cnccc23)CC1` (centres unmarked) [Example 71, N-[2-(4-benzylaminocarbonylpiperazinyl)-1-(p-hydroxybenzyl)ethyl]-5-isoquinolinesulfonamide], in assay [1] (setting [3]), the EC50 amounted to 14 µM. Also, in the assay with washed platelets (setting [4]), the IC50 is 93 µM.

Take `CN(C(Cc1ccc(O)cc1)CN1CCCN(C(=O)OCc2ccccc2)CC1)S(=O)(=O)c1cccc2cnccc12` (centres unmarked) [Example 113]: the EC50 in assay [1] (setting [3]) amounted to 0.88 µM. The IC50 amounted to 20 µM in the assay with washed platelets (setting [4]) and 1.2 µM in assay [2].

On to `CN(C(Cc1ccc(O)cc1)CN1CCCNCC1)S(=O)(=O)c1cccc2cnccc12` (centres unmarked) [Example 114, N-[1-(p-hydroxy)benzyl-2-homopiperazinylethyl]-N-methyl-5-isoquinolinesulfonamide], for which, in assay [1] (setting [3]), the EC50 turned out to be 54 µM. Further, in the assay with washed platelets (setting [4]), the half-inhibitory concentration (IC50) was found to be 100 µM.

As to `O=C(OCc1ccccc1)N1CCCN(C(=O)[C@H](Cc2ccc(O)cc2)NS(=O)(=O)c2cccc3cnccc23)CC1` [Example 123, 1-Benzyloxycarbonyl-4-[N-(5-Isoquinolinesulfonyl)Tyrosyl]Homopiperazine], the EC50 in assay [1] (setting [3]) came out at 4.8 µM. The IC50 in the assay on washed platelets (setting [4]) is 22 µM.

Consider `COc1ccc(N2CCN(CC(Cc3ccc(N)cc3)NS(=O)(=O)c3cccc4cnccc34)CC2)cc1` (centres unmarked) [Example 127, N-{1-(p-aminovenzyl)-2-[4-(p-methoxyphenyl)piperazinyl]ethyl}-5-isoquinolinesulfonamide], for which the IC50 in the assay with washed platelets (setting [4]) turned out to be 39 µM.

As to `O=S(=O)(Nc1ccccc1NCC=Cc1cccnc1)c1cccc2cnccc12` [Example 145, N-{2-[3-(3-pyridyl)allylamino]phenyl}-5-isoquinolinesulfonamide], the IC50 in the assay on washed platelets (setting [4]) was determined as 12 µM.

Regarding `CC(C=Cc1ccc(Cl)cc1)NCCNS(=O)(=O)c1cccc2cnccc12` (centres unmarked) [Example 153], the EC50 in assay [1] (setting [3]) is 1.5 µM. Moreover, the IC50 with washed platelets (setting [4]) came to 25 µM.

In the case of `CC(C=Cc1ccccc1)NCCNS(=O)(=O)c1cccc2cnccc12` (stereo not drawn) [Example 154, N-[2-(α-Methylcinnamylamino)Ethyl]-5-Isoquinolinesulfonamide], in the assay with washed platelets (setting [4]), the IC50 was found to be 60 µM.

With `CC(C=Cc1ccc(F)cc1F)NCCNS(=O)(=O)c1cccc2cnccc12` (centres unmarked) [Example 155], the EC50 in assay [1] (setting [3]) worked out at 4.1 µM. In addition, in the assay on washed platelets (setting [4]), the IC50 is 55 µM.

`CC(C=Cc1ccc(Cl)cc1Cl)NCCNS(=O)(=O)c1cccc2cnccc12` (stereo not drawn) [Example 156, N-[2-(2,4-Dichloro-α-Methylcinnamylamino)Ethyl]-5-Isoquinolinesulfonamide]: the EC50 in assay [1] (setting [3]) came to 4.4 µM. The IC50 (with washed platelets (setting [4]); in assay [2]) was 19 µM in each case.

Regarding `CC(C=Cc1cccc(Cl)c1)NCCNS(=O)(=O)c1cccc2cnccc12` (centres unmarked) [Example 157], the EC50 in assay [1] (setting [3]) is 3.2 µM. Moreover, the results for the IC50 (with washed platelets (setting [4]); in assay [2]) were 36 µM and 8.6 µM, respectively.

With `CC(C=Cc1ccc([N+](=O)[O-])cc1)NCCNS(=O)(=O)c1cccc2cnccc12` (centres unmarked) [Example 159], in assay [1] (setting [3]), the EC50 is 5.1 µM. Besides, the IC50 was found to be 24 µM in the assay on washed platelets (setting [4]) and 92 µM in assay [2].

As to `Cc1ccc(C=CC(C)NCCNS(=O)(=O)c2cccc3cnccc23)cc1` (centres unmarked) [Example 160], in assay [1] (setting [3]), the EC50 is 1.8 µM. For the same compound, in the assay with washed platelets (setting [4]), the IC50 was determined as 56 µM.

Consider `CC(C=Cc1ccc(F)cc1)NCCNS(=O)(=O)c1cccc2cnccc12` (stereo not drawn) [Example 166, N-[2-(4-Fluoro-α-Methylcinnamylamino)Ethyl]-5-Isoquinolinesulfonamide], for which the EC50 in assay [1] (setting [3]) turned out to be 1.4 µM. Further, in the assay with washed platelets (setting [4]), the IC50 turned out to be 90 µM.

As for `CC(C=Cc1ccc(Br)cc1)NCCNS(=O)(=O)c1cccc2cnccc12` (centres unmarked) [Example 167], the EC50 in assay [1] (setting [3]) amounted to 1.2 µM. Also, the IC50 in the assay with washed platelets (setting [4]) was 52 µM.

For `CC(C=Cc1ccc(C(C)C)cc1)NCCNS(=O)(=O)c1cccc2cnccc12` (centres unmarked) [Example 168], the EC50 in assay [1] (setting [3]) was determined as 3.6 µM. In addition, the IC50 in the assay with washed platelets (setting [4]) is 26 µM.

On to `O=S(=O)(NCCNCC=Cc1ccc(Cl)cc1)c1cccc2cnccc12` [Example 172, N-[2-(4-Chlorocinnamylamino)ethyl]-5-Isoquinolinesulfonamide], for which the EC50 in assay [1] (setting [3]) stood at 1 µM. Further, the IC50 stood at 51 µM in the assay on washed platelets (setting [4]) and 9.4 µM in assay [2].

For `O=S(=O)(NCCNCC=Cc1ccc(Br)cc1)c1cccc2cnccc12` [Example 176, N-[2-(4-Bromophenylcinnamylamino)ethyl]-5-Isoquinolinesulfonamide], in assay [1], the EC50 came out at 1.2 µM. Moreover, the IC50 with washed platelets turned out to be 55 µM; in assay [2], 8.5 µM.

Consider `CC(C)c1ccc(C=CCNCCNS(=O)(=O)c2cccc3cnccc23)cc1` [Example 177], for which the EC50 in assay [1] (setting [3]) was found to be 2.7 µM. The IC50 was found to be 56 µM with washed platelets (setting [4]) and 24 µM in assay [2].

For `O=S(=O)(NCCNCC=Cc1ccc(C(F)(F)F)cc1)c1cccc2cnccc12` [Example 179, N-[2-(4-Trifluoromethylcinnamylamino)Ethyl]-5-Isoquinolinesulfonamide], in assay [1] (setting [3]), the EC50 stood at 2.8 µM. Also, the IC50 in the assay with washed platelets (setting [4]) came out at 51 µM; in assay [2] it was 7.8 µM.

As for `O=S(=O)(NCCNCC=CC=CC=Cc1ccc(C(F)(F)F)cc1)c1cccc2cnccc12` [Example 181], the EC50 in assay [1] (setting [3]) stood at 8.4 µM. The IC50 in the assay with washed platelets (setting [4]) was found to be 38 µM; in assay [2] it was 4.7 µM.
